# According to patent publication US9012431B2, “Boron-containing small molecules as anti-inflammatory agents” (Anacor Pharmaceuticals, Inc., priority 2008, dated 2015):
# Experiments:
# TNF-α = experiment: Cytokine assay, TNF-α release from PBMC; format: cell-based; conditions: 1 μg/mL LPS; for IC50: Homo sapiens, PBMC, 24 h, supernatant at 24 hours
# Procedure, shortened: (§1)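 Using previously frozen human PBMC resuspended in medium of RPMI 1640 supplemented with 10% FBS, test article at 10, 1, 0.1 and 0.01 μM was evaluated in triplicate; DMSO stock was 10 mM.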
# IL-2 = experiment: Cytokine assay, IL-2 release from PBMC; format: cell-based; conditions: human PBMC, 20 ug/mL PHA; for IC50: supernatant at 24 hours
# Procedure, shortened: as §1
# IFN-γ = experiment: Cytokine assay, IFN-γ release from PBMC; format: cell-based; conditions: human PBMC, 20 ug/mL PHA, supernatant at 24 hours
# Procedure, shortened: as §1
# IL-5 = experiment: Cytokine assay, IL-5 release from PBMC; format: cell-based; conditions: human PBMC, 20 ug/mL PHA; for IC50: supernatant at 48 hours
# Procedure, shortened: as §1
# IL-10 = experiment: Cytokine assay, IL-10 release from PBMC; format: cell-based; conditions: human PBMC, 20 ug/mL PHA; for IC50: supernatant at 48 hours
# Procedure, shortened: as §1
# [1] = test system: T1, PDE4 partially purified from human U-937 myeloid leukemia cells; experiment: PDE4 Assay (enzyme from U-937 cells, [3H]cAMP); format: biochemical; conditions: PDE4 from U-937 cells, Tris buffer pH 7.5, 20 minutes at 25° C.
# T1 construct: PDE4 partially purified from human U-937 myeloid leukemia cells was used
# [2] = test system: CD-1 (Crl.) derived male mice; experiment: Phorbol Ester Induced Mouse Ear Edema Model; format: in vivo; conditions: topical, 6 h; for inhibition in vivo at 1 mg: 1 mg/ear × 2 topical; for inhibition in vivo at 0.2 mg: 0.2 mg/ear × 2 topical; for inhibition in vivo at 3 mg: 3 mg/ear × 2 topical; for inhibition in vivo at 0.1 mg: 0.1 mg/ear × 2 topical; for inhibition in vivo at 0.02 mg: 0.02 mg/ear × 2 topical; for inhibition in vivo at 0.067 mg: 0.067 mg/ear × 2 topical
# Procedure: 1. In Vivo Anti-Inflammation Activity in Phorbol Ester Induced Mouse Ear Edema Model
# […] Dexamethasone (1 mg/ear×2) used as the positive control was administered topically to test animals using the same application schedule. Ear swelling was then measured by a Dyer model micrometer gauge at 6 hours after PMA application as an index of inflammation. Percent inhibition was calculated according to the formula: [(Ic−It)/Ic]×100%, where Ic and It refer to increase of ear thickness (mm) in control and treated mice, respectively.
# BALB/c male mice = experiment: Oxazolone Induced Mouse Ear Edema Model; format: in vivo; conditions: for inhibition in vivo at 1 mg: 1 mg/ear × 2 topical; for inhibition in vivo at 0.2 mg: 0.2 mg/ear × 2 topical
# Procedure: 2. In Vivo Anti-Inflammation Activity in Oxazolone Induced Mouse Ear Edema Model
# Groups of 5 BALB/c male mice weighing 23±2 g were used. The preshaved abdomens of test animals were sensitized by application of 100 μl, of 1.5% oxazolone solution dissolved in acetone. Seven days after the initial sensitization, test substances, as well as vehicle (acetone:ethanol/1:1, 20 μL/ear) were each administered topically to the anterior and posterior surfaces of the right ear 30 minutes before, and 15 minutes after, challenge by a second application of oxazolone (1% in acetone, […]) via topical route. As a positive control, indomethacin (0.3 mg/ear×2) was administered topically using the same treatment regime as for the test compounds. Twenty-four hours after the second application of oxazolone, the ear thickness of each mouse was measured with a Dyer model micrometer gauge. A 30 percent or more inhibition in ear swelling relative to the vehicle control was considered significant and indicated possible anti-inflammatory activity.
# [3] = Acetone:Ethanol/1:1, ear swelling 6 hours after PMA
# [4] = Acetone:Ethanol/1:1, ear thickness 24 hours after second oxazolone application
# [5] = 95% Ethanol, ear swelling 6 hours after PMA
# [6] = […] × 2 topical, 95% Ethanol, ear swelling 6 hours after PMA
Structure (SMILES),IC50 (TNF-α) [nM],IC50 (IL-2) [nM],IC50 (IFN-γ) [nM],IC50 (IL-5) [nM],IC50 (IL-10) [nM],IC50 [1] [nM],"inhibition in vivo at 1 mg [2, 3] [%]",inhibition in vivo at 1 mg (BALB/c male mice; [4]) [%],other results
"N#Cc1ccc(Oc2ccc3c(c2)COB3O)cc1C(F)(F)F [D5, 5-(4-Cyano-3-trifluoromethylphenoxy)-1,3-dihydro-1-hydroxy-2,1-benzoxaborole]",< 1000,1000 to 4000,< 1000,< 1000,> 10000,< 1000,30 to 60,30 to 40,
"COC(=O)c1cc(Oc2ccc3c(c2)COB3O)ccc1C#N [D6, 5-(4-Cyano-3-methoxycarbonylphenoxy)-1,3-dihydro-1-hydroxy-2,1-benzoxaborole]",< 1000,< 1000,< 1000,4000 to 10000,4000 to 10000,< 1000,30 to 60,< 20,"inhibition in vivo at 0.2 mg [2, 3]: < 30%; inhibition in vivo at 0.2 mg (BALB/c male mice; [4]): < 20%"
"COC(=O)c1cc(Oc2ccc3c(c2)COB3O)ccc1C(N)=O [D7, 5-(4-Carbamoyl-3-methoxycarbonylphenoxy)-1,3-dihydro-1-hydroxy-2,1-benzoxaborole]",< 1000,< 1000,< 1000,< 1000,< 1000,< 1000,,,"inhibition in vivo at 1 mg/kg ([2]; 1 mg/kg × 2 topical, Acetone:Ethanol/1:1, ear swelling 6 hours after PMA): < 30%; inhibition in vivo at 1 mg/kg (BALB/c male mice; 1 mg/kg × 2 topical, Acetone:Ethanol/1:1, ear thickness 24 hours after second oxazolone application): < 20%"
"COc1cc(Oc2ccc3c(c2)COB3O)ccc1C#N [D12, 5-(4-Cyano-3-methoxyphenoxy)-1,3-dihydro-1-hydroxy-2,1-benzoxaborole]",< 1000,< 1000,< 1000,1000 to 4000,< 1000,< 1000,30 to 60,30 to 40,"inhibition in vivo at 0.2 mg [2, 3]: < 30%; inhibition in vivo at 0.2 mg (BALB/c male mice; [4]): < 20%"
"N#Cc1ccc(Oc2ccc3c(c2)COB3O)cc1OC1CCCC1 [D37, 2-Cyclopentyloxy-4-(1-hydroxy-1,3-dihydro-benzo[c][1,2]oxaborol-5-yloxy)-benzonitrile]",< 1000,< 1000,< 1000,< 1000,< 1000,< 1000,60 to 90,< 20,"inhibition in vivo at 3 mg [2, 5]: 60 to 90%"
"COc1nc(Oc2ccc3c(c2)COB3O)ccc1C#N [D46, 6-(1-hydroxy-1,3-dihydrobenzo[c][1,2]oxaborol-5-yloxy)-2-methoxynicotinonitrile]",< 1000,< 1000,< 1000,< 1000,< 1000,< 1000,60 to 90,< 20,"inhibition in vivo at 0.05 mg ([2]; 0.05 mg/ear × 2 topical, 95% Ethanol, ear swelling 6 hours after PMA): < 30%; inhibition in vivo at 0.1 mg [2, 3]: < 30%; inhibition in vivo at 0.17 mg ([2]; 0.17 mg/ear × 2 topical, 95% Ethanol, ear swelling 6 hours after PMA): < 30%; inhibition in vivo at 0.2 mg [2, 3]: < 30%; inhibition in vivo at 0.5 mg ([2]; 0.5 mg/ear × 2 topical, 95% Ethanol, ear swelling 6 hours after PMA): < 30%; inhibition in vivo at 3 mg [2, 5]: 60 to 90%"
"O=C(O)c1ccc(Oc2ccc3c(c2)COB3O)nc1 [D61, 6-(1-Hydroxy-1,3-dihydrobenzo[c][1,2]oxaborol-5-yloxy)nicotinic acid]",,,,,,,30 to 60,< 20,"inhibition at 10 µM (TNF-α; human PBMC, 24 hours, 10 μM): < 30%; inhibition at 10 µM (IL-2; 24 hours, 10 μM): < 30%; inhibition at 10 µM (IL-5; 48 hours, 10 μM): 30 to 60%; inhibition at 10 µM (IL-10; 48 hours, 10 μM): < 30%; inhibition in vivo at 0.1 mg [2, 3]: < 30%; inhibition in vivo at 0.2 mg [2, 3]: < 30%; inhibition in vivo at 0.1 mg (BALB/c male mice; 0.1 mg/ear × 2 topical, Acetone:Ethanol/1:1, ear thickness 24 hours after second oxazolone application): < 20%; inhibition in vivo at 0.2 mg (BALB/c male mice; [4]): < 20%"
"CC(C)OC(=O)c1ccc(Oc2ccc3c(c2)COB3O)nc1 [D67, Isopropyl 6-(1-hydroxy-1,3-dihydrobenzo[c][1,2]oxaborol-5-yloxy)nicotinate]",< 1000,< 1000,< 1000,< 1000,< 1000,< 1000,60 to 90,< 20,
"CCCCOC(=O)c1ccc(Oc2ccc3c(c2)COB3O)nc1 [D68, n-Butyl 6-(1-hydroxy-1,3-dihydrobenzo[c][1,2]oxaborol-5-yloxy)nicotinate]",< 1000,< 1000,4000 to 10000,1000 to 4000,1000 to 4000,< 1000,30 to 60,< 20,
"N#Cc1ccc(Oc2ccc3c(c2)COB3O)nc1N1CCCC1 [D97, 6-(1-Hydroxy-1,3-dihydro-benzo[c][1,2]oxaborol-5-yloxy)-2-pyrrolidin-1-yl-nicotinonitrile]",< 1000,< 1000,< 1000,< 1000,< 1000,< 1000,,,"inhibition in vivo at 0.19 mg ([2]; 0.19 mg/ear × 2 topical, 95% Ethanol, ear swelling 6 hours after PMA): < 30%; inhibition in vivo at 0.056 mg [2, 6]: < 30%; inhibition in vivo at 0.56 mg [2, 6]: 30 to 60%; inhibition in vivo at 0.56 mg (BALB/c male mice; 0.56 mg/ear × 2 topical, 95% Ethanol, ear thickness 24 hours after second oxazolone application): < 20%"
"N#Cc1ccc(Oc2ccc3c(c2)COB3O)nc1OCCO [D99, 6-(1-Hydroxy-1,3-dihydro-benzo[c][1,2]oxaborol-5-yloxy)-2-(2-hydroxy-ethoxy)-nicotinonitrile]",< 1000,< 1000,< 1000,< 1000,< 1000,< 1000,,< 20,"inhibition in vivo at 0.02 mg [2, 5]: < 30%; inhibition in vivo at 0.067 mg [2, 5]: < 30%; inhibition in vivo at 0.2 mg [2, 5]: < 30%; inhibition in vivo at 3 mg [2, 5]: 60 to 90%; inhibition in vivo at 0.02 mg (BALB/c male mice; 0.02 mg/ear × 2 topical, 95% Ethanol, ear thickness 24 hours after second oxazolone application): < 20%"
"N#Cc1ccc(Oc2ccc3c(c2)COB3O)nc1N1CCOCC1 [D102, 6-(1-Hydroxy-1,3-dihydro-benzo[c][1,2]oxaborol-5-yloxy)-2-morpholin-4-yl-nicotinonitrile]",< 1000,< 1000,< 1000,< 1000,1000 to 4000,< 1000,,< 20,"inhibition in vivo at 0.02 mg [2, 5]: < 30%; inhibition in vivo at 0.067 mg [2, 5]: < 30%; inhibition in vivo at 1 mg [2, 5]: 30 to 60%; inhibition in vivo at 3 mg [2, 5]: 30 to 60%"
"CCOc1nc(Oc2ccc3c(c2)COB3O)ccc1C#N [D107, 2-Ethoxy-6-(1-hydroxy-1,3-dihydro-benzo[c][1,2]oxaborol-5-yloxy)-nicotinonitrile]",< 1000,< 1000,< 1000,< 1000,< 1000,< 1000,,,"inhibition in vivo at 0.02 mg [2, 5]: < 30%; inhibition in vivo at 0.06 mg ([2]; 0.06 mg/ear × 2 topical, 95% Ethanol, ear swelling 6 hours after PMA): < 30%; inhibition in vivo at 0.067 mg [2, 5]: 30 to 60%; inhibition in vivo at 0.2 mg [2, 5]: 60 to 90%; inhibition in vivo at 0.24 mg ([2]; 0.24 mg/ear × 2 topical, 95% Ethanol, ear swelling 6 hours after PMA): 30 to 60%; inhibition in vivo at 0.8 mg ([2]; 0.8 mg/ear × 2 topical, 95% Ethanol, ear swelling 6 hours after PMA): 60 to 90%; inhibition in vivo at 2.4 mg ([2]; 2.4 mg/ear × 2 topical, 95% Ethanol, ear swelling 6 hours after PMA): 60 to 90%; inhibition in vivo at 2.4 mg (BALB/c male mice; 2.4 mg/ear × 2 topical, 95% Ethanol, ear thickness 24 hours after second oxazolone application): < 20%"
"CCOc1cc(Oc2ccc3c(c2)COB3O)ccc1C#N [D124, 2-Ethoxy-4-(1-hydroxy-1,3-dihydrobenzo[c][1,2]oxaborol-5-yloxy)benzonitrile]",< 1000,< 1000,< 1000,< 1000,< 1000,< 1000,,< 20,"inhibition in vivo at 1 mg [2, 5]: < 30%"
